Measured values published in US11530213B2, “Naphthyridinone derivatives and their use in the treatment of arrhythmia” (NOVARTIS AG, priority 2016, dated 2022).

target: GIRK1/4 (Homo sapiens (Human), UniProt P48544+P48549); experiment: GIRK1/4 inhibition, Quattro (IonWorks) population patch clamp, inward potassium current in GIRK 1/4 HEK293 stable cells (test assay No. 1); type: cell-based; settings: percentage of current inhibition normalized to DMSO-only control
Outline: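 GIRK1/4-expressing HEK293 cells were recorded by IonWorks Quattro perforated patch (amphotericin B), with inward K+ current measured at 1200-1220 ms during a −120 to 40 mV ramp, before and after compound (50-0.1 µM or 0.5-0.01 µM final, quadruplicate). IC50 came from % current inhibition normalized to DMSO control.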

GIRK1/4, sequence (P48549 whole entry): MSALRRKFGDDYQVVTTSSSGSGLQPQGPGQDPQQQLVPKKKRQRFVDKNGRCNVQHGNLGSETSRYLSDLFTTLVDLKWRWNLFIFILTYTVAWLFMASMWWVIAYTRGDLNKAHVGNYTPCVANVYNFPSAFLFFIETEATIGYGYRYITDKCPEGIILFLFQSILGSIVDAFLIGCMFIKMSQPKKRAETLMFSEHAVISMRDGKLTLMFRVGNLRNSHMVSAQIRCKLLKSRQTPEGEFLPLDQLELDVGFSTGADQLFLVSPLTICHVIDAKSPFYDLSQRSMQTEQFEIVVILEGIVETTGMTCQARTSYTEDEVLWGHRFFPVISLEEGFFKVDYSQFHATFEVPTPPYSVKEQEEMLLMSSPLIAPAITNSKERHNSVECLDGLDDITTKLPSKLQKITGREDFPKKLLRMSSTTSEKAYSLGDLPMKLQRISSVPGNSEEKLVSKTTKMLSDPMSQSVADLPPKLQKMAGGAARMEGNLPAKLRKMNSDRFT
GIRK1/4, sequence (P48544 whole entry): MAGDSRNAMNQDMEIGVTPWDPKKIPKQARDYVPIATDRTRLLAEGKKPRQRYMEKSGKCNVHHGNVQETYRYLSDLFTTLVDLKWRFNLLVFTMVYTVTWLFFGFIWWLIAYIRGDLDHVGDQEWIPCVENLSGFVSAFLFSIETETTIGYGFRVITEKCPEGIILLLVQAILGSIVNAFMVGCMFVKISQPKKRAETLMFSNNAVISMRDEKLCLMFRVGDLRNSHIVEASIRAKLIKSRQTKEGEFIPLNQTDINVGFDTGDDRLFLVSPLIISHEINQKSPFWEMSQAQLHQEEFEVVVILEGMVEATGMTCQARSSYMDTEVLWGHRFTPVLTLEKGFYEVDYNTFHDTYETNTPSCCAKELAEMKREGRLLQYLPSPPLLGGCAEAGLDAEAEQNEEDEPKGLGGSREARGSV

Point of comparison: `Cc1cc(=O)c2c(NCCOCCOCCOCCO)ncc(Cl)c2n1-c1c(Cl)cccc1Cl` [Example 37, 8-chloro-1-(2,6-dichlorophenyl)-5-((2-(2-(2-(2-hydroxyethoxy)ethoxy)ethoxy)ethyl)amino)-2-methyl-1,6-naphthyridin-4(1H)-one], IC50 6 nM. Against it:
- Cc1cc(=O)c2c(NC[C@H](O)CO)ncc(Cl)c2n1-c1c(Cl)cccc1Cl [Example 39, (S)-8-chloro-1-(2,6-dichlorophenyl)-5-((2,3-dihydroxypropyl)amino)-2-methyl-1,6-naphthyridin-4(1H)-one] — 2.5-fold higher, 15 nM
- N#Cc1cc(=O)c2c(OCC(O)CO)ncc(Cl)c2n1-c1c(Cl)cccc1Cl (centres unmarked) [Example 63, 8-Chloro-1-(2,6-dichlorophenyl)-5-(2,3-dihydroxpropoxy)-4-oxo-1,4-dihydro-1,6-naphthyridine-2-carbonitrile] — 2.7-fold higher, 16 nM
- CNc1cc2c(c(OCC(O)CO)n1)c(=O)cc(C)n2-c1c(Cl)cccc1Cl (centres unmarked) [Example 65, 1-(2,6-Dichlorophenyl)-5-(2,3-dihydroxpropoxy)-2-methyl-7-(methylamino)-1,6-naphthyridin-4(1H)-one] — 65-fold higher, 390 nM
- Cc1cc(=O)c2c(OCC(O)C(O)CO)ncc(Cl)c2n1-c1c(Cl)cccc1Cl (centres unmarked) [Example 26, 8-chloro-1-(2,6-dichlorophenyl)-2-methyl-5-(2,3,4-trihydroxybutoxy)-1,6-naphthyridin-4(1H)-one] — 5.2-fold higher, 31 nM
- Cc1cc(=O)c2c(OCCOCCOCCOCCO)ncc(Cl)c2n1-c1c(Cl)cc(F)cc1Cl [Example 32, 8-chloro-1-(2,6-dichloro-4-fluorophenyl)-5-(2-(2-(2-(2-hydroxyethoxy)ethoxy)ethoxy)ethoxy)-2-methyl-1,6-naphthyridin-4(1H)-one] — 5.5-fold higher, 33 nM
- Cc1cc(=O)c2c(OCCO)ncc(Cl)c2n1-c1c(Cl)cc(C#CCN2CCS(=O)(=O)CC2)cc1Cl [Example 92, 8-Chloro-1-(2,6-dichloro-4-(3-(1,1-dioxidothiomorpholino)prop-1-yn-1-yl)phenyl)-5-(2-hydroxyethoxy)-2-methyl-1,6-naphthyridin-4(1H)-one] — 7.8-fold higher, 47 nM
- Cc1cc(=O)c2c(-n3cncn3)ncc(Cl)c2n1-c1c(Cl)cccc1Cl [Example 71, 8-Chloro-1-(2,6-dichlorophenyl)-2-methyl-5-(1H-1,2,4-triazol-1-yl)-1,6-naphthyridin-4(1H)-one] — 29-fold higher, 176 nM
- Cc1cc(=O)c2c(Nc3nnn(C)n3)ncc(Cl)c2n1-c1c(Cl)cccc1Cl [Example 47, 8-chloro-1-(2,6-dichlorophenyl)-2-methyl-5-((2-methyl-2H-tetrazol-5-yl)amino)-1,6-naphthyridin-4(1H)-one] — 9.8-fold higher, 59 nM
- Cc1cc(=O)c2c(NCCc3c[nH]cn3)ncc(Cl)c2n1-c1c(Cl)cccc1Cl [Example 35, 5-((2-(1H-imidazol-4-yl)ethyl)amino)-8-chloro-1-(2,6-dichlorophenyl)-2-methyl-1,6-naphthyridin-4(1H)-one] — 5.8-fold higher, 35 nM
- Cc1cc(=O)c2c(OCC3COC3)ncc(Cl)c2n1-c1c(Cl)cccc1Cl [Example 50, 8-chloro-1-(2,6-dichlorophenyl)-2-methyl-5-(oxetan-3-ylmethoxy)-1,6-naphthyridin-4(1H)-one] — 1.8-fold higher, 11 nM
